The text below walks through data of patent US8895585B2, “Nicotinamide derivative or salt thereof” (FUJIFILM Corporation, priority 2010, dated 2014).

Test [1] deals with THP-1 cells. In words: TNFα generation assay. In kind it is cell-based, human. The note with it: Homo sapiens. How it is done: THP-1 cells (2×10^5 cells/ml), which were human monocytoid cells, were cultured in the presence of 10 ng/ml IFN-γ (Roche) for 2 days, so that the cells were induced to differentiate into macrophage-like cells. The differentiation-induced THP-1 cells were recovered, and the cells (1×10^6 cell/ml) were then allowed to react with a predetermined concentration of test compound at room temperature for 30 minutes. On the other hand, 100 μl of human IgG (10 μg/ml, SIGMA-ALDRICH) diluted with PBS was added to a 96-well plate, and it was then incubated at room temperature overnight. Thereafter, the resultant was washed with PBS twice to produce a human IgG-coated plate. Subsequently, a cell solution that contained a compound was inoculated on the human IgG-coated plate (5×10^4 cells/well), and it was then cultured for 7 hours. Thereafter, the cultured solution was recovered, and the amount of TNFα secreted into the culture solution was then measured by the ELISA method (Roche/R & D Systems) or the AlphaLISA method (PerkinElmer).

For test [2], the target named is T1, glutathione S-transferase (GST)-fused full-length human Syk protein (Homo sapiens, UniProt P43405).
T1 construct: (GST)-fused full-length human Syk protein; GST (glutathione S-transferase); purchased Carna Biosciences
In words: Syk enzyme assay. In kind it is biochemical. Summed up: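 GST-tagged full-length human Syk (baculovirus) preincubated with compound 15 min at room temperature (pH 7.0, 10 mM MgCl2), then reacted 40 min with 0.4 μM biotinylated peptide substrate and 27 μM ATP (final). Phosphorylation read by HTRF (615/665 nm) after EDTA stop; IC50 reported.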

The mark [3] stands for this setting: THP-1, 7 h, IFN-γ-differentiated THP-1 cells on human IgG-coated plate, cultured 7 hours, read-out: TNFα generation inhibitory activity (IC50).
The mark [4] stands for this setting: THP-1, THP-1 cells, Table 22, read-out: IC50 in TNFα generation assay.
The mark [5] stands for this setting: Syk enzyme assay, Test Example 1, read-out: IC50 of Syk-inhibitory activity.

Like-named read-outs stand apart in the source and are kept apart here.

Regarding `NC(=O)Nc1cccc2cc(Nc3nc(N[C@@H]4CCCC[C@@H]4N)c(F)cc3C(N)=O)cnc12` (relative stereo) [Example 4-64, 2-((8-(aminocarbonyl)amino-quinolin-3-yl)amino)-6-(cis-2-amino-cyclohexylamino)-5-fluoronicotinamide], in test [1] (setting [3]), the IC50 was at most 200 nM. Same read-out and setting: the value for `CC(C)C[C@H](N)CNc1nc(Nc2ccc3ncccc3c2)c(C(N)=O)cc1F` [Example 14-10, 6-(((2S)-2-amino-4-methylpentyl)amino)-5-fluoro-2-(quinolin-6-ylamino)nicotinamide] was at most 200 nM. As for `NC(=O)c1cc(F)c(N[C@@H]2CCCC[C@@H]2N)nc1Nc1ccnc2c1ccn2CCN1CCCC1` [Example 004-023], in test [1] (setting [4]), the IC50 fell in the range of 65 to 130 nM. In the case of `NC(=O)c1cc(F)c(N[C@@H]2CCCC[C@@H]2N)nc1Nc1cncc(-n2nccn2)c1` (relative stereo) [Example 4-42, 6-(cis-2-aminocyclohexylamino)-5-fluoro-2-((5-(2H-1,2,3-triazol-2-yl)pyridin-3-yl)amino)nicotinamide], in test [1] (setting [3]), the IC50 is at most 200 nM. On the same count and under the same terms, the value for `Cn1cnc2cc(Nc3nc(N[C@@H]4CCCC[C@@H]4N)c(F)cc3C(N)=O)ccc21` (relative stereo) [Example 6-65, 6-(cis-2-aminocyclohexylamino)-5-fluoro-2-((1-methyl-1H-benzo[d]imidazol-5-yl)amino)nicotinamide] was at most 200 nM. As for `Cc1nc2ccc(Nc3nc(N[C@@H]4CCCC[C@@H]4N)c(F)cc3C(N)=O)cc2o1` (relative stereo) [Example 006-043, 6-(cis-2-aminocyclohexylamino)-5-fluoro-2-((2-methylbenzo[d]oxazol-6-yl)amino)nicotinamide], the IC50 in test [1] (setting [4]) is 130 to 200 nM. Turning to `NC(=O)c1cc(F)c(N[C@@H]2CCCC[C@@H]2N)nc1Nc1cnc2c(ccn2CCN2CCCC2)c1` (relative stereo) [Example 4-22, 6-(cis-2-aminocyclohexylamino)-5-fluoro-2-((1-(2-(pyrrolidin-1-yl)ethyl)-1H-pyrrolo[2,3-b]pyridin-5-yl)amino)nicotinamide], the IC50 in test [1] (setting [3]) was at most 200 nM. The same measure, in the same setting: the value for `Cc1cnc2cc(Nc3nc(N[C@@H]4CCCC[C@@H]4N)c(F)cc3C(N)=O)ccc2n1` (relative stereo) [Example 6-76, 6-(cis-2-aminocyclohexylamino)-5-fluoro-2-((2-methylquinoxalin-6-yl)amino)nicotinamide] was at most 200 nM; that for `Cc1nc2ccc(Nc3nc(N[C@@H]4CCCC[C@@H]4N)c(F)cc3C(N)=O)cc2o1` (relative stereo) [Example 6-43, 6-(cis-2-aminocyclohexylamino)-5-fluoro-2-((2-methylbenzo[d]oxazol-6-yl)amino)nicotinamide] was at most 200 nM; that for `NC(=O)c1cc(F)c(NC[C@@H](N)c2ccccc2)nc1Nc1ccc2ncccc2c1` [Example 14-5, 6-(((2S)-2-amino-2-phenylethyl)amino)-5-fluoro-2-(quinolin-6-ylamino)nicotinamide] was at most 200 nM. Regarding `NC(=O)c1cc(F)c(N[C@@H]2CCCC[C@@H]2N)nc1Nc1ccc2nn(CCN3CCCC3)cc2c1` (relative stereo) [Example 6-83, 6-(cis-2-aminocyclohexylamino)-5-fluoro-2-((2-(2-(pyrrolidin-1-yl)ethyl)-2H-indazol-5-yl)amino)nicotinamide], the IC50 in test [1] (setting [3]) is at most 200 nM. Take `NC(=O)c1cc(F)c(N[C@@H]2CCCC[C@@H]2N)nc1Nc1ccc2nsnc2c1` (relative stereo) [Example 6-34, 6-(cis-2-aminocyclohexylamino)-2-((benzo[c][1,2,5]thiadiazol-5-yl)amino)-5-fluoronicotinamide]: in test [1] (setting [3]), the IC50 is at most 200 nM. Take `NC(=O)c1cc(F)c(N[C@@H]2CCCC[C@@H]2N)nc1Nc1ccc2[nH]ncc2c1` (relative stereo) [Example 6-87, 6-(cis-2-aminocyclohexylamino)-5-fluoro-2-((1H-indazol-5-yl)amino)nicotinamide]: in test [1] (setting [3]), the IC50 was at most 200 nM. Consider `NC(=O)c1cc(F)c(N[C@@H]2CCCC[C@@H]2N)nc1Nc1ccc2ncccc2c1` (relative stereo) [Example 8-6, 6-(cis-2-aminocyclohexylamino)-5-fluoro-2-(quinolin-6-ylamino)-nicotinamide], for which the IC50 in test [1] (setting [3]) was at most 200 nM. Same read-out and setting: with `NC(=O)c1cc(F)c(N[C@@H]2CCCC[C@@H]2N)nc1Nc1cnc2ncsc2c1` (relative stereo) [Example 4-26, 6-(cis-2-aminocyclohexylamino)-5-fluoro-2-(([1,3]thiazolo[4,5-b]pyridin-6-yl)amino)nicotinamide] the figure was at most 200 nM; with `NC(=O)c1cc(F)c(N[C@@H]2CCCC[C@@H]2N)nc1Nc1cccc(Cl)c1` (relative stereo) [Example 8-8, 6-(cis-2-aminocyclohexylamino)-2-((3-chlorophenyl)amino)-5-fluoro-nicotinamide], at most 200 nM; with `Cn1ncc2c(Nc3nc(N[C@@H]4CCCC[C@@H]4N)c(F)cc3C(N)=O)cccc21` (relative stereo) [Example 6-75, 6-(cis-2-aminocyclohexylamino)-5-fluoro-2-((1-methyl-1H-indazol-4-yl)amino)nicotinamide], at most 200 nM. On the same count and under the same terms, with `Cc1ccc2cc(Nc3nc(N[C@@H]4CCCC[C@@H]4N)c(F)cc3C(N)=O)ccc2n1` (relative stereo) [Example 6-70, 6-(cis-2-aminocyclohexylamino)-5-fluoro-2-((2-methylquinolin-6-yl)amino)nicotinamide] the figure was at most 200 nM; with `CC[C@@H](Nc1nc(Nc2ccc3ncccc3c2)c(C(N)=O)cc1F)C(N)=O` [Example 12-31, 6-(((2R)-1-amino-1-oxobutan-2-yl)amino)-5-fluoro-2-(quinolin-6-ylamino)nicotinamide], at most 200 nM; with `NC(=O)c1cc(F)c(N[C@@H]2CCCC[C@@H]2N)nc1Nc1ccc2c(cnn2CCN2CCCC2)c1` (relative stereo) [Example 6-82, 6-(cis-2-aminocyclohexylamino)-5-fluoro-2-((1-(2-(pyrrolidin-1-yl)ethyl)-1H-indazol-5-yl)amino)nicotinamide], at most 200 nM. Turning to `NC(=O)c1cc(F)c(N[C@@H]2CCCC[C@@H]2N)nc1Nc1ccnc2c1ccn2CCN1CCCC1` (relative stereo) [Example 4-23, 6-(cis-2-aminocyclohexylamino)-5-fluoro-2-((1-(2-(pyrrolidin-1-yl)ethyl)-1H-pyrrolo[2,3-b]pyridin-4-yl)amino)nicotinamide], the IC50 in test [1] (setting [3]) was at most 200 nM. Regarding `NC(=O)c1cc(F)c(N[C@@H]2CCCC[C@@H]2N)nc1Nc1ccc2cccnc2c1` (relative stereo) [Example 6-72, 6-(cis-2-aminocyclohexylamino)-5-fluoro-2-(quinolin-7-ylamino)nicotinamide], the IC50 in test [1] (setting [3]) was at most 200 nM.

Regarding `Cc1cccc(Nc2nc(N[C@@H]3CCCC[C@@H]3N)c(F)cc2C(N)=O)c1` (relative stereo) [Example 2-3, 6-(cis-2-aminocyclohexylamino)-5-fluoro-2-((3-methyl-phenyl)amino)nicotinamide], the IC50 in test [1] (setting [3]) is at most 200 nM. Take `Cc1ccccc1C(=O)Nc1cncc(Nc2nc(NC3CCCCC3N)c(F)cc2C(N)=O)c1` (centres unmarked) [Example 027-023]: the IC50 in test [2] (setting [5]) fell in the range of 50 to 100 nM.

As for `NC(=O)c1cc(F)c(NC2CCCCC2N)nc1Nc1cncc(-c2cn[nH]c2)c1` (centres unmarked) [Example 002-069], in test [2] (setting [5]), the IC50 is below 10 nM.

In the case of `NC(=O)c1cc(F)c(NC2CCCCC2N)nc1Nc1cccc2c1cnn2CCN1CCOCC1` (centres unmarked) [Example 002-027], the IC50 in test [2] (setting [5]) is below 10 nM. As for `NC(=O)c1cc(F)c(N[C@@H]2CCCC[C@@H]2N)nc1Nc1cnc2nccnc2c1` [Example 004-021], the IC50 in test [2] (setting [5]) was in the range of 100 to 1000 nM. Regarding `NC(=O)c1cc(F)c(N[C@@H]2CCCC[C@@H]2N)nc1Nc1cncc(-c2ccc(F)cc2)c1` (relative stereo) [Example 004-145, 6-(cis-2-aminocyclohexylamino)-5-fluoro-2-((5-(4-fluorophenyl)pyridin-3-yl)amino)-nicotinamide], the IC50 in test [2] (setting [5]) is below 10 nM. As for `NC(=O)c1cc(F)c(NC2CCCCC2N)nc1Nc1cncc(NC(=O)c2csc3ccccc23)c1` (centres unmarked) [Example 027-039], in test [2] (setting [5]), the IC50 is 10 to 50 nM.

For the compound `C[C@H](N)[C@H](C)Nc1nc(Nc2ccc3ncccc3c2)c(C(N)=O)cc1F` [Example 006-181, 6-(((2S,3S)-3-aminobutan-2-yl)amino)-5-fluoro-2-((quinolin-6-yl)amino)nicotinamide], the IC50 in test [2] (setting [5]) fell in the range of 100 to 1000 nM. Take `NCCNc1nc(Nc2cccc(C(=O)Nc3ccccc3)c2)c(C(N)=O)cc1F` [Example 30, 6-(2-aminoethylamino)-2-(3-(anilinocarbonyl)phenylamino)-5-fluoronicotinamide]: the IC50 in test [2] (read-out: Syk-inhibitory activity (IC50)) was at most 1000 nM. `CC(C)C[C@H](CN)Nc1nc(Nc2ccc3c(cnn3CC(F)F)c2)c(C(N)=O)cc1F` [Example 006-422, (R)-6-((1-amino-4-methylpentan-2-yl)amino)-2-((1-(2,2-difluoroethyl)-1H-indazol-5-yl)amino)-5-fluoronicotinamide]: in test [2] (setting [5]), the IC50 is below 10 nM.
